Source: ChEMBL document CHEMBL3392922, “MMV box screening in the Dd2 P. falciparum strain”
pIC50: −log10 of the molar value.

Test system: Plasmodium falciparum
Assay: MMV: IC50 determined against P. falciparum Dd2-luc strain using a Malaria Sybr Green I Fluorescence assay. Starting conditions were 1% trophozoite synchronised parasites at 2% haematocrit. Fluorescence detection completed after 48hr incubation at 37 degrees C under 1% O2, 3% CO2 and balance N2.
Type: functional, organism-based
Details: Dd2, 48 h

| Structure (SMILES) | pIC50 |
| --- | --- |
| CCN1CCCC1CNc1[nH]cnc2c3cc(Cl)ccc3nc1-2 (stereo not drawn) | 5.84 |
| CCOc1cc(CNC(C)C(O)c2ccccc2)cc(Cl)c1OCC (stereo not drawn) | 5.72 |
| Nc1nc(Nc2cccc(F)c2)nc2ccccc12 | 5.63 |
| CCOc1c(Cl)cc(CNCC(O)c2ccccc2)cc1OC (stereo not drawn) | 5.89 |
| COc1ccc2nc(C)cc(Nc3ccccc3O)c2c1 | 5.96 |
| Cc1cc(C)cc(Nc2cc(C)nc3nc(C(F)(F)F)nn23)c1 | 6.86 |
| CCn1nc(-c2ccc(C(=O)OC)cc2)nc2c(=O)n(C)c(=O)nc1-2 | 6.16 |
| CCOc1ccccc1CN1CCc2nc3cc(C(C)(C)C)nn3c(O)c2C1 | 5.91 |
| O=C(NC1CCN(Cc2ccccc2)CC1)c1cc2nc(-c3ccc(Cl)s3)cc(C(F)(F)F)n2n1 | 5.29 |
| Cc1sc(NC(=O)c2ccco2)c(C(c2cccnc2)N2CCC(Cc3ccccc3)CC2)c1C (stereo not drawn) | 5.87 |
| Cc1cc(N2CCCC2)nc(Nc2ccc(NC(=O)CCc3ccccc3)cc2)n1 | 5.90 |
| O=C(NCC(c1ccsc1)N1CCCCCC1)c1ccc(C(F)(F)F)cc1 (stereo not drawn) | 6.33 |
| Cc1cc(NC(=O)c2cccc(C(F)(F)F)c2)n(-c2nc(-c3ccc4c(c3)OCO4)cs2)n1 | 5.66 |
| O=C(CCc1ccccc1)c1ccccc1OCC(O)CN1CCCCC1 (stereo not drawn) | 5.96 |
| CCCCCC(=O)N1c2ccccc2N=C2CC(c3ccc(OC)c(OC)c3)CC(O)=C2C1c1ccc(C(F)(F)F)cc1 (stereo not drawn) | 6.75 |
| Cc1cc(Nc2ccc3ccccc3c2)n2ncnc2n1 | 6.81 |
| COc1ccc(-n2ccnc2SCC(=O)Nc2cc(C)ccc2C)c(OC)c1 | 6.45 |
| CCN1CCN(Cc2ccc(NC(=O)c3cc4ccc5cccnc5c4[nH]3)cc2)CC1 | 6.18 |
| COc1cccc(Nc2nc(NCCO)c3ccccc3n2)c1 | 6.05 |
| COc1ccc(C(=O)Nc2ccc3nc(N4CCCCC4)cc(C)c3c2)cc1OC | 6.21 |
| COCCNCC(O)Cn1c2ccc(Cl)cc2c2cc(Cl)ccc21 (stereo not drawn) | 6.19 |

| Structure (SMILES) | pIC50 |
| --- | --- |
| COc1ccc(N2CCN(C(CNC(=O)C3CCCCC3)c3ccc4c(c3)OCO4)CC2)cc1 (stereo not drawn) | 6.24 |
| O=C(NC1CCN(Cc2ccccc2)CC1)c1cc(-c2ccncc2)nc2ccc(Cl)cc12 | 5.83 |
| COc1cccc(Nc2nc(N)c3ccccc3n2)c1 | 5.51 |
| CCC(O)c1ccc(Br)cc1NC(=O)c1cccc(Cl)c1 (stereo not drawn) | 6.15 |
| CN(C)CCCNCc1ccc(-c2ccc(F)c(Cl)c2)o1 | 5.93 |
| Cn1c(=O)c2cc(C(=O)NCCCN3CCCCCC3)sc2c2ccccc21 | 6.44 |
| Cc1[nH]c(-c2ccc(F)cc2)cc1C(=O)NC1CCN(Cc2ccccc2)CC1 | 5.78 |
| Cc1sc2ncnc(Sc3nc4ccccc4[nH]3)c2c1C | 6.07 |
| CCOc1cc2c(cc1OCC)C(c1cc(OC)c(O)cc1Cl)NCC2 (stereo not drawn) | 6.92 |
| CC1CN(C(=O)c2sc3ccccc3c2Cl)CC(C)O1 (stereo not drawn) | 6.98 |
| CCC(=O)Nc1nnc(Cc2ccc(OC)c(OC)c2)s1 | 6.15 |
| Oc1ccccc1CN1CCN(C(c2ccccc2)c2ccccc2)CC1 | 6.02 |
| c1ccc2c(NCCCCCCNc3c4c(nc5ccccc35)CCCC4)c3c(nc2c1)CCCC3 | 6.26 |
| CCC1(C)CC(CCNCc2ccccc2O)(c2ccc(C)cc2)CCO1 (stereo not drawn) | 6.85 |
| OC(CNC1CCCCC1)Cn1c2ccccc2c2ccccc21 (stereo not drawn) | 6.56 |
| O=C(NCCCN1CCC(N2CCCCC2)CC1)C1=Cc2cc(Br)ccc2OC1 | 6.02 |
| O=C(NC1CCN(Cc2ccccc2)CC1)c1cc(C(=O)NC2CCN(Cc3ccccc3)CC2)cc(C(=O)NC2CCN(Cc3ccccc3)CC2)c1 | 6.58 |
| CCN1CCN(c2cc(C)c3cc(NC(=O)c4ccc(OC)c(OC)c4)ccc3n2)CC1 | 5.73 |
| Fc1ccc2[nH]c3c(NCCCN4CCOCC4)ncnc3c2c1 | 6.48 |
| CC(=O)Nc1nnc(SCc2c(C)cc(C(C)(C)C)cc2C)s1 | 6.10 |
| Cc1ccc(Cl)cc1N1CCN(CCCNC(=O)C2CCN(c3nc4ccccc4[nH]3)CC2)CC1 | 5.89 |

| Structure (SMILES) | pIC50 |
| --- | --- |
| O=C(Nc1ccc(CN2CCOCC2)cc1)c1ccc(-c2cc(Cl)ccc2Cl)o1 | 5.76 |
| CCOc1ccc(C2N(C)c3ccccc3N2C)cc1 | 6.04 |
| Cc1cccc(Nc2nc(N)c3ccccc3n2)c1 | 5.46 |
| COc1cccc(C(=O)Nc2ccc(-c3nc4ccccc4[nH]3)cc2)c1 | 6.08 |
| CCn1c(CN2CCN(Cc3ccccc3)CC2)nc2cc(NC(=O)c3cccs3)ccc21 | 6.33 |
| O=C(NC1CCN(Cc2ccccc2)CC1)c1cc(-c2cccnc2)nc2ccc(Cl)cc12 | 5.91 |
| CCN(Cc1ccccc1)C1CCN(Cc2cc(Br)ccc2O)CC1 | 6.22 |
| Nc1ccc(-c2nc3cc(Oc4ccc(Oc5ccc6[nH]c(-c7ccc(N)cc7)nc6c5)cc4)ccc3[nH]2)cc1 | 6.50 |
| Cc1ccc(C)c(Cn2c(N3CCC(C(=O)NCc4cccs4)CC3)nc3ccccc32)c1 | 5.94 |
| CCOc1cccc(C(=O)Nc2ccc(-c3nc4ccccc4[nH]3)cc2)c1 | 5.92 |
| Cc1cc(N(C)C)nc(Nc2ccc(NC(=O)Nc3ccccc3)cc2)n1 | 6.01 |
| Clc1cc(Br)ccc1-c1ccc(CNCC2CCNCC2)o1 | 6.22 |
| COc1ccc(C2C(C(=O)Nc3cccc(OC)c3)c3ccccc3C(=O)N2C2CCCCC2)cc1 (stereo not drawn) | 5.63 |
| CCN(CC)c1ccc(NC(=O)c2cccs2)cc1 | 6.29 |
| COc1ccc(-c2nonc2NC(=O)c2cccc(Cl)c2)cc1OC | 5.88 |
| Cc1cc(NC(=O)c2ccc(-c3ccccc3)cc2)no1 | 6.11 |
| COc1cccc(-c2nn(C)c3sc(C(=O)NCCN4CCN(c5ccccc5F)CC4)cc23)c1 | 5.72 |
| Oc1ccccc1CNCC12CC3CC(CC(C3)C1)C2 | 6.55 |
| CNCCCNc1ccnc2cc(Cl)ccc12 | 6.36 |
| COc1cc(-c2nc(-c3ccccc3)c(-c3ccccc3)[nH]2)cc(OC)c1O | 5.81 |
| COc1ccccc1CNC(=O)CCn1c(=O)[nH]c2ccsc2c1=O | 6.01 |

| Structure (SMILES) | pIC50 |
| --- | --- |
| O=C(Nc1ccc(N2CCN(Cc3ccccc3)CC2)cc1)c1cccs1 | 6.13 |
| Cc1ccc(-c2nc3ccccc3o2)cc1NCc1cc(Cc2ccccc2)ccc1O | 5.77 |
| Cc1ccc(Nc2nc(N)c3ccccc3n2)cc1Cl | 5.96 |
| O=C(Nc1ccc(N2CCCCC2)c(Cl)c1)c1ccc(Br)o1 | 6.25 |
| Cc1cc(C)c2nc(N3CCC(C(=O)NCCCN4CCC(N5CCCCC5)CC4)CC3)sc2c1 | 5.89 |
| CC1CCN(Cc2ccc(NC(=O)c3cc4ccc5cccnc5c4[nH]3)cc2)CC1 | 6.62 |
| COc1cc(SC)ccc1C(=O)N1CCCC(C)C1 (stereo not drawn) | 5.40 |
| CC(C)(C)c1ccc(C(=O)Nc2nc3ccccc3s2)cc1 | 5.38 |
| COc1cc(CNCCc2ccc(Cl)cc2)cc(OC)c1O | 5.73 |
| Cc1cc(Nc2ccc(Cl)cc2)n2nc(C(F)(F)F)nc2n1 | 6.52 |
| COc1cc2c(cc1OC)C1=NNC(=O)C1=NC(C)(C)C2 | 6.14 |
| Oc1c2c(nc3cc(-c4ccccc4)nn13)CCCC2 | 5.81 |
| CCOC(=O)C1CCN(C(=O)CN2C(=O)c3ccccc3C2c2c[nH]c3ccccc23)CC1 (stereo not drawn) | 6.29 |
| CN(C)c1ccc(N=Cc2ccc(N3CCOCC3)cc2)cc1 | 6.46 |
| CCN(CC)S(=O)(=O)c1ccc(-c2csc(Nc3ccc(C)c(C)c3)n2)cc1 | 6.03 |
| CCCn1c(=N)c(C(=O)NC2CCCCC2)cc2c(=O)n3cccc(C)c3nc21 | 5.79 |
| CCN1CCN(c2c(C(=O)c3ccccc3)cnc3cc(OC)c(OC)cc23)CC1 | 5.48 |
| CC(C)(C)c1ccc(C2CC3=Nc4ccccc4N(C(=O)c4ccccc4Cl)C(c4ccc(F)cc4)C3=C(O)C2)cc1 (stereo not drawn) | 5.70 |
| O=C(Nc1cccc(C2=NCCN2)c1)Nc1cccc(C2=NCCN2)c1 [IMIDOCARB] | 6.48 |
| CN(C)c1ccc(C(O)(c2ccc(N(C)C)cc2)c2ccc(N(C)C)cc2)cc1 [METHYLROSANILINE] | 6.66 |
